Results: patent publication US11213543B2, “Human gastrointestinal microbiome modulating composition and methods of use” (priority 2011, dated 2022)
“Also recorded” adds a separate entry of the source.

Assays:
[1] = cited from earlier work
[2] = metformin without FORMULA A
Experimental: They were started on metformin 500 mg twice a day and was instructed to measure their fasting blood sugar on a daily basis. Over the course of 7 days they were instructed to increase metformin to 1000 mg twice a day.

[3] = set-up: key: ↑indicates an increase is reported; ↓ indicates that a decrease is reported; details: reported in the references of Table 6, cited from earlier work

Compound	weight loss ([1]; approximate)	incidence of diarrhea in diabetic patients taking the drug ([1]; compared to only 6% of diabetic patients not taking metformin)	stools / diarrhea on metformin [2]	Function: TG ([3]; TG is triglyceride)	Function: GLP-1 [3]	Function: PYY [3]	Function: ghrelin [3]	Function: satiety [3]	Function: LDL chol [3]	Function: hunger [3]
CN(C)C(=N)N=C(N)N [metformin]	2 to 3 kg	20%	persistent watery stools; also recorded: Diarrhea							
Inulin				↓	↑	↑	↓	↑		
β-Glucan					↑	↑	↓	↑	↓	↓
